Experimental data published in patent US20090030066A1, “SMALL MOLECULES FOR THE PROTECTION OF PANCREATIC CELLS” (priority 2007, published 2009).

What was measured:
[1] = system: STZ-treated mice; assay: STZ-treated mice, second experiment: body weight to day 80 and survival; assay type: in vivo; details: for survivors: 80th day
From the text: In a second similar experiment performed with 6 mice in each group, the changes in body weight were followed for up to 80 days (when the last STZ-treated mouse died), and survival was followed for up to 100 days.
For the body weight (on the 80th day) and survival the following values were obtained: Untreated (6 survivors), 37.7 g; STZ-treated (one last survivor died on day 80, others survived for 22, 25, 27, 60, 75 days), 26.0 g; CCompound1-treated (6 survivors), 36.0 g; STZ+CCompound1 treated (6 survivors), 33.4 g; STZ+CCompound3-treated (5 survivors; one mouse died on day 78), 32.5 g. At the start of the experiment (day 0), the average body weight ranged from 28.6 to 29.8 g. Accordingly, by day 80, STZ-treated animals that were also treated with CCompound1 and CCompound3 gained about 50% of the weight gained by the untreated animals.

[2] = system: RINm5F rat islet β-cells; assay: MTT viability of palmitic acid-treated RINm5F islet β-cells; assay type: cell-based; details: for A540 (MTT, relative number of viable cells): 24 h, mean ± S.D. n=8
From the text: (§1) In the Examples below, an MTT assay was used to determine the relative number of viable cells after treatments. This calorimetric assay is based on the ability of living cells, but not dead cells, to reduce 3-(4,5-dimethyl thiazol-2-yl)-2,5-diphenyltetrazolium bromide. [Carmichael, J, De Graff, W. G., Gazdar, A. F., Minna, J. D. and Mitchell, J. B. (1987) Evaluation of tetrazolium-based semiautomated calorimetric assay: Assessment of chemosensitivity testing. Cancer Res. 47, 936-942], which is hereby incorporated by reference. For this assay, cells were plated in 96-well plates, and the MTT assay was performed as described in the above article both in untreated and treated cell cultures. The MTT assay also was performed at the time when the treatment was started to allow for assessment of the proliferation and survival rates in the control and treated cell cultures. In the MTT assay, higher values mean proportionally higher numbers of viable cells.
RINm5F rat islet β-cells (ATCC CRL-2058; secondary clone of RIN-m clone secreting only insulin, but no somatostatin or glucagon) were used to determine if CCompound1 could protect them against fatty acid-induced cell death. The medium for propagation: RPMI 1640/10% fetal bovine serum.
Palmitic acid (purchased from Sigma-Aldrich) was dissolved in 200 mM ethanol and then diluted 1:25 with Krebs-Ringer-Hepes buffer containing 20% bovine serum albumin (fraction V, fatty acid-free; from Sigma-Aldrich). The fatty acid mixture was gently agitated at 37° C. under nitrogen overnight. The cells were seeded into 96-well plates at a density of 8,000 cells per well. When the cultures reached 70% confluence, fatty acid or a corresponding amount of albumin and CCompound1 (suspended in the medium) were added to the medium and incubations continued for 24 hours. This was followed by the MTT assay to determine the relative number of viable cells.

[3] = system: NIT-1 β-cells; assay: MTT viability of STZ-treated NIT-1 islet β-cells; assay type: cell-based, mouse; details: for A540 (MTT, relative number of viable cells): 30 h, 2% serum, mean ± std. dev. n=8
From the text: as §1
NIT-1 β-cells, originally isolated from transgenic NOD mouse carrying SV 40 large T antigen gene on a rat insulin promoter, were obtained from American Type Culture Collection (ATCC CRL-2055). NIT-1 cells contain and secrete insulin, while at the same time they retained their ability to proliferate in the presence of an appropriate stimulus. The cells, maintained in Ham's F12K medium containing 10% heat-inactivated dialyzed fetal bovine serum, were used between passages 32-35.
In this experiment, NIT-1 cells were seeded into 96-well plates. After 24 hours, the medium was replaced with fresh 2% fetal bovine serum containing medium, followed by treatments with 2-50 μM of CCompound1 and 30 min later with 20 mM STZ. Treatments were for 30 hours followed by the MTT assay to determine the relative number of viable cells (expressed as A540).

[4] = system: STZ-treated mice; assay: Blood glucose and body weight in STZ-treated mice, first experiment (not fasted); assay type: in vivo; details: for Body weight: in g
Protocol: Male C57BL/6 mice (12 weeks old) were housed in a specific pathogen-free facility with a 12-h light/dark cycle and given free access to food and water. Animals weighing between 28-31 g were selected for the experiments. In each group, at the start of experiment the body weight among individual animals differed by less than 1-g.
One group of mice received no treatment over the entire experiment. A second group received only 4.5 mg per kg of CCompound1 on days −2, −1, 0, +1, +2, +3, +4, +5, +6 and +7. A third/fourth/fifth/sixth group of animals were treated i.p. with 210 mg/kg of STZ on day 0. The fourth, fifth, and sixth group of animals also received 4.5 mg per kg each of CCompound1 (CC1; 4th group) or CCompound3 (CC3; 5th group), or CCompound19 (CC19; 6th group) on days −2, −1, 0, +1, +2, +3, +4, +5, +6 and +7 (with STZ treatment given on day 0). Each group consisted of 7 animals. Body weight was measured regularly.
CC compounds were dissolved in physiological saline while STZ was dissolved in 100 mM sodium citrate (pH 4.5). All compounds were injected intraperitoneally in 0.5 ml volume. Control animals were injected physiological saline (0.5 ml) on the same days when other groups were treated with CC compounds.
Blood samples were taken from the eye (canthus) of the animals on days −1, 0, +1, +2, +3, +7 and +10, and glucose concentrations in whole blood samples were immediately measured with the commercially available fast Glucose C test. The animals were not fasted prior to taking the blood samples. The results are expressed as the mean values from 7 animals ±std. dev. (S.D.).

[5] = STZ + compound, 6 mice per group

Cc1c(OCC(O)C[N+](C)(C)C)cc2c(=O)c3ccccc3sc2c1C.[Cl-] (stereo not drawn) [CCcompound1, [3-(3,4-Dimethyl-9-oxo-9H-thioxanthen-2-yloxy)-2-hydroxypropyl]trimethyl-ammonium chloride]
weight gained by day 80 relative to the weight gained by the untreated animals ([1]; STZ + compound): about 50% | body weight on the 80th day [1, 5]: 33.4 g | survivors [1, 5]: 6 | body weight on the 80th day ([1]; compound alone, no STZ, 6 mice): 36.0 g | survivors ([1]; compound alone, no STZ, 6 mice per group): 6 | effect on palmitic acid-induced decrease in the number of viable cells ([2]; 5 μM): partially prevented | effect on palmitic acid-induced decrease in the number of viable cells ([2]; 10 μM): almost fully prevented | effect on palmitic acid-induced decrease in the number of viable cells ([2]; 50 μM): added to the inhibitory effect of palmitic acid | A540 (MTT, relative number of viable cells) ([2]; palmitic acid 0.5 mM + compound 5 μM): 1,198 ± 0.086 | A540 (MTT, relative number of viable cells) ([2]; palmitic acid 0.5 mM + compound 10 μM): 1,251 ± 0.069 | A540 (MTT, relative number of viable cells) ([2]; palmitic acid 0.5 mM + compound 50 μM): 0.836 ± 0.080 | effect on the inhibitory effects of STZ on cell proliferation ([3]; 10 μM): almost fully reverses | effect on the inhibitory effects of STZ on cell proliferation ([3]; 50 μM): added to the inhibitory effects of STZ | effect on the inhibitory effects of STZ on cell proliferation ([3]; 2-5 μM): partially reverses | A540 (MTT, relative number of viable cells) ([3]; STZ 20 mM + compound 2 μM): 0.934 ± 0.053 | A540 (MTT, relative number of viable cells) ([3]; STZ 20 mM + compound 5 μM): 1.078 ± 0.068 | A540 (MTT, relative number of viable cells) ([3]; STZ 20 mM + compound 10 μM): 1.144 ± 0.056 | A540 (MTT, relative number of viable cells) ([3]; STZ 20 mM + compound 50 μM): 0.718 ± 0.071 | effect of compound alone on blood glucose level ([4]; 4.5 mg/kg i.p., no STZ): no effect on blood glucose level | Body weight ([4]; STZ 210 mg/kg + compound 4.5 mg/kg i.p., day 0, unit not given): 28.2 ± 0.7 | Body weight ([4]; STZ 210 mg/kg + compound 4.5 mg/kg i.p., day +1, unit not given): 28.0 ± 0.7 | Body weight ([4]; STZ 210 mg/kg + compound 4.5 mg/kg i.p., day +2, unit not given): 26.9 ± 0.8 | Body weight ([4]; STZ 210 mg/kg + compound 4.5 mg/kg i.p., day +3, unit not given): 26.9 ± 0.5 | Body weight ([4]; STZ 210 mg/kg + compound 4.5 mg/kg i.p., day +7, unit not given): 27.1 ± 0.7 | Body weight ([4]; STZ 210 mg/kg + compound 4.5 mg/kg i.p., day +10, unit not given): 27.2 ± 0.9 | Blood glucose ([4]; STZ 210 mg/kg i.p. day 0 + compound 4.5 mg/kg i.p. days −2 to +7, day 0): 4.1 ± 0.4 mM | Blood glucose ([4]; STZ 210 mg/kg i.p. day 0 + compound 4.5 mg/kg i.p. days −2 to +7, day +1): 5.7 ± 0.5 mM | Blood glucose ([4]; STZ 210 mg/kg i.p. day 0 + compound 4.5 mg/kg i.p. days −2 to +7, day +2): 8.2 ± 1.4 mM | Blood glucose ([4]; STZ 210 mg/kg i.p. day 0 + compound 4.5 mg/kg i.p. days −2 to +7, day +3): 10.1 ± 1.5 mM | Blood glucose ([4]; STZ 210 mg/kg i.p. day 0 + compound 4.5 mg/kg i.p. days −2 to +7, day +7): 10.9 ± 1.2 mM | Blood glucose ([4]; STZ 210 mg/kg i.p. day 0 + compound 4.5 mg/kg i.p. days −2 to +7, day +10): 11.0 ± 0.8 mM | Blood glucose ([4]; STZ 210 mg/kg i.p. day 0 + compound 4.5 mg/kg i.p. days −2 to +7, day −1): 4.6 ± 0.7 mM | protection of islet β-cells ([4]; STZ-induced type 1 diabetes model): protected islet β-cells | effect on STZ-induced rise of blood glucose ([4]; STZ-treated animals, 4.5 mg/kg i.p.): prevent drastic increase in blood glucose level | effect on STZ-induced body weight loss ([4]; STZ-treated mice, to day 10): reduced the effect of STZ on body weight | Blood glucose ([4]; compound alone 4.5 mg/kg i.p. days −2 to +7, no STZ, day 0): 4.5 ± 0.4 mM | Blood glucose ([4]; compound alone 4.5 mg/kg i.p. days −2 to +7, no STZ, day +1): 4.7 ± 0.6 mM | Blood glucose ([4]; compound alone 4.5 mg/kg i.p. days −2 to +7, no STZ, day +2): 4.6 ± 0.4 mM | Blood glucose ([4]; compound alone 4.5 mg/kg i.p. days −2 to +7, no STZ, day +3): 4.7 ± 0.4 mM | Blood glucose ([4]; compound alone 4.5 mg/kg i.p. days −2 to +7, no STZ, day +7): 4.6 ± 0.4 mM | Blood glucose ([4]; compound alone 4.5 mg/kg i.p. days −2 to +7, no STZ, day +10): 4.3 ± 0.6 mM | Blood glucose ([4]; compound alone 4.5 mg/kg i.p. days −2 to +7, no STZ, day −1): 4.5 ± 0.4 mM | Body weight ([4]; compound alone 4.5 mg/kg i.p., no STZ, day 0, unit not printed in table (animals 28-31 g)): 28.2 ± 0.9 | Body weight ([4]; compound alone 4.5 mg/kg i.p., no STZ, day +1, unit not given): 28.7 ± 0.4 | Body weight ([4]; compound alone 4.5 mg/kg i.p., no STZ, day +2, unit not given): 28.1 ± 0.4 | Body weight ([4]; compound alone 4.5 mg/kg i.p., no STZ, day +3, unit not given): 28.7 ± 0.7 | Body weight ([4]; compound alone 4.5 mg/kg i.p., no STZ, day +7, unit not given): 29.5 ± 0.8 | Body weight ([4]; compound alone 4.5 mg/kg i.p., no STZ, day +10, unit not given): 30.3 ± 1.4
